Assays:
[1] = xn = mol fraction of the nth substance listed; details: 308.15 K, 101 kPa, Liquid; for viscosity: Capillary tube (Ostwald / Ubbelohde) method; for mass density: Pycnometric method; for speed of sound: Sing-around technique in a fixed-path interferometer
[2] = 308.15 K, 101.3 kPa, Liquid; for viscosity: Capillary tube (Ostwald / Ubbelohde) method; for mass density: Pycnometric method; for speed of sound: Sing-around technique in a fixed-path interferometer

N#CCc1ccccc1 [benzeneacetonitrile] + CCCC(C)=O
[1]
Details | mass density [kg/m3] | speed of sound [m/s] | viscosity [mPa·s]
x1 = 0.0221 | 797 | 1189 | 0.41
x1 = 0.1416 | 826.8 | 1228 | 0.495
x1 = 0.2622 | 856 | 1271 | 0.6
x1 = 0.3564 | 877.5 | 1313 | 0.685
x1 = 0.4811 | 904.2 | 1363 | 0.819
x1 = 0.6125 | 931.5 | 1394 | 0.976
x1 = 0.7133 | 950.9 | 1418 | 1.1
x1 = 0.8389 | 974.8 | 1456 | 1.29
x1 = 0.9736 | 998.6 | 1499 | 1.509
x1 = 1 | 1003.2 | 1518 | 1.585

CCC(=O)CC [pentan-3-one] + N#CCc1ccccc1
[1], x2 = 0
Details | mass density [kg/m3] | speed of sound [m/s] | viscosity [mPa·s]
– | 800 | 1185 | 0.371

N#CCc1ccccc1 [benzeneacetonitrile] + CCC(C)=O
[1]
Details | mass density [kg/m3] | speed of sound [m/s] | viscosity [mPa·s]
x1 = 0.0205 | 796.1 | 1167 | 0.334
x1 = 0.1218 | 825.9 | 1208 | 0.412
x1 = 0.2283 | 854 | 1265 | 0.497
x1 = 0.3188 | 876.8 | 1308 | 0.583
x1 = 0.4403 | 905.5 | 1356 | 0.72
x1 = 0.5655 | 931.3 | 1397 | 0.868
x1 = 0.6706 | 950.7 | 1421 | 1.015
x1 = 0.8086 | 974.1 | 1454 | 1.228
x1 = 0.9657 | 998.1 | 1497 | 1.498
x1 = 1 | 1003.2 | 1518 | 1.585

CC(=O)CC(C)C [4-methylpentan-2-one] + N#CCc1ccccc1
[1], x2 = 0
Details | mass density [kg/m3] | speed of sound [m/s] | viscosity [mPa·s]
– | 786.8 | 1150 | 0.455

N#CCc1ccccc1 [benzeneacetonitrile] + CCC(=O)CC
[1]
Details | mass density [kg/m3] | speed of sound [m/s] | viscosity [mPa·s]
x1 = 0.0235 | 806 | 1199 | 0.388
x1 = 0.1407 | 835.4 | 1237 | 0.474
x1 = 0.2569 | 861.5 | 1278 | 0.567
x1 = 0.358 | 883.3 | 1314 | 0.665
x1 = 0.4803 | 909 | 1354 | 0.79
x1 = 0.6048 | 933.7 | 1397 | 0.936
x1 = 0.6943 | 951.2 | 1421 | 1.064
x1 = 0.8378 | 976.7 | 1471 | 1.281
x1 = 0.9722 | 998.9 | 1496 | 1.528
x1 = 1 | 1003.2 | 1518 | 1.585

CCCC(C)=O [pentan-2-one]
[2]
Details | mass density [kg/m3] | speed of sound [m/s] | viscosity [mPa·s]
– | 790.8 | 1179 | 0.394

CCC(C)=O [butanone] + N#CCc1ccccc1
[1], x2 = 0
Details | mass density [kg/m3] | speed of sound [m/s] | viscosity [mPa·s]
– | 789.2 | 1157 | 0.316

CCC(=O)CC [pentan-3-one]
[2]
Details | mass density [kg/m3] | speed of sound [m/s] | viscosity [mPa·s]
– | 800 | 1185 | 0.371

CC(=O)CC(C)C [4-methylpentan-2-one]
[2]
Details | mass density [kg/m3] | speed of sound [m/s] | viscosity [mPa·s]
– | 786.8 | 1150 | 0.455

CCC(C)=O [butanone]
[2]
Details | mass density [kg/m3] | speed of sound [m/s] | viscosity [mPa·s]
– | 789.2 | 1157 | 0.316

N#CCc1ccccc1 [benzeneacetonitrile]
[2]
Details | mass density [kg/m3] | speed of sound [m/s] | viscosity [mPa·s]
– | 1003.2 | 1518 | 1.585

N#CCc1ccccc1 [benzeneacetonitrile] + CC(=O)CC(C)C
[1]
Details | mass density [kg/m3] | speed of sound [m/s] | viscosity [mPa·s]
x1 = 0.0271 | 792.5 | 1166 | 0.475
x1 = 0.16 | 823.3 | 1212 | 0.573
x1 = 0.2926 | 852.2 | 1261 | 0.679
x1 = 0.3931 | 874.6 | 1298 | 0.775
x1 = 0.5217 | 902.8 | 1340 | 0.91
x1 = 0.6436 | 928.9 | 1382 | 1.049
x1 = 0.7407 | 949.8 | 1414 | 1.164
x1 = 0.8599 | 976 | 1459 | 1.338
x1 = 0.9758 | 998.1 | 1498 | 1.523
x1 = 1 | 1003.2 | 1518 | 1.585

CCCC(C)=O [pentan-2-one] + N#CCc1ccccc1
[1], x2 = 0
Details | mass density [kg/m3] | speed of sound [m/s] | viscosity [mPa·s]
– | 790.8 | 1179 | 0.394

From the NIST ThermoML archive (doi:10.1021/je8003723)
